Measured values from US20200352976A1, “HYPOMETHYLATING AGENTS FOR USE IN TREATMENT OF CANCER” (Otsuka Pharmaceutical Co., Ltd, priority 2019, published 2020).

How the values were obtained:
[1] = test system: intermediate-risk or high-risk myelodysplastic syndromes (MDS) or chronic myelomonocytic leukemia (CMML); assay: Phase 1/2 trial (Phase 2 portion) with subgroup and landmark analyses: response, survival, transfusion independence; assay type: in vivo, human; details: for Median survival: all 102 patients
Procedure: A multicenter, open-label, randomized, phase 1/2 trial was performed with Compound I-1 to compare the activity and safety of two doses of Compound I-1 in hypomethylating agent treatment naïve or relapsed or refractory patients with intermediate-risk or high-risk myelodysplastic syndromes.
Patients enrolled in the study were aged 18 years or older, with a confirmed diagnosis of IPSS intermediate-1, intermediate-2, or high-risk myelodysplastic syndromes (MDS), or chronic myelomonocytic leukemia (CMML). Patients were either hypomethylating agent treatment-naïve or had relapsed or refractory disease after previous hypomethylating agent treatment as determined by the investigators' judgment (two or more complete full-dose cycles of a hypomethylating agent). The IPSS score in patients with relapsed or refractory myelodysplastic syndromes had been established at the time of their initial diagnosis. Eligible patients had Eastern Cooperative Oncology Group performance status of 0-2; adequate renal function (serum creatinine ≤1.5-times the upper limit of normal [ULN]) and adequate hepatic function (total bilirubin ≤2-times the ULN, and aspartate and alanine transaminases ≤2.5-times the ULN); had not undergone major surgery within 4 weeks or hemopoietic stem-cell transplantation within 8 weeks; or received chemotherapy within 2 weeks or nitrosoureas within 6 weeks of Compound I-1 treatment (hydroxycarbamide was allowed during treatment cycle 1). A patient with previous allogeneic stem-cell transplants was only eligible if the patient had no evidence of active graft-versus-host disease and had discontinued immunosuppressive therapy 2 weeks or more before receiving the study drug.
Patients received subcutaneous Compound I-1 at 60 or 90 mg/m^2 on days 1-5 of a 28-day treatment cycle. The intention was to provide the standard planned dose for four or more cycles; dose reduction could be instituted, as necessary, and the length of treatment cycles could be extended up to 42 days to allow for bone-marrow recovery in cases of severe cytopenia. Additional delay or dose reduction was allowed for recovery from toxicity in previous cycles based on the physician's judgment.
Hematological responses were monitored by analysis of blood and bone marrow aspiration. After the initial bone marrow aspirate screening at baseline, the results of peripheral blood assessments determined the frequency of subsequent bone marrow aspiration to confirm response or assess drug-related bone marrow toxicity. Complete peripheral blood counts and white blood cell differentials were measured at least once a week, including granulocyte numbers, platelet numbers, and hemoglobin concentration.
The primary endpoint was overall response, which was a composite of complete response (CR), partial response, marrow complete response (mCR), and hematological improvement. Overall response was assessed by local investigators. Secondary endpoints included the individual components of overall response, time to response, duration of response, overall survival, blood transfusion and platelet transfusion independence at weeks 8 and 16, and safety, including the incidence of adverse events, and all-cause early mortality at 30, 60, and 90 days. Exploratory analyses were done to examine the association between baseline characteristics and overall response.
Activity and safety endpoints were evaluated for all patients who received at least one dose of study drug, and no patients who received treatment were excluded from the analyses. […] Time to response and duration of response were summarized in days using descriptive statistics. Overall survival was analyzed using the Kaplan-Meier method, with survival time censored on the last date of contact if the patient was alive or lost to follow-up. Blood and platelet transfusion independence were summarized descriptively in the subset of patients who were transfusion-dependent at baseline. […]

[2] = Phase 3 trial pharmacokinetics and exposure response; assay type: in vivo, human
Procedure: A previously developed Population PK model was applied to calculate model-derived estimates for total cycle exposures (Cmax and AUC) from sparse PK samples collected in Cycle 1 for Compound I-1 and decitabine for use in exposure-response analysis for efficacy and safety. The analyses of exposure-efficacy and exposure-safety relationships were performed separately for patients who received Compound I-1 and patients who received decitabine IV. The following analyses were performed to assess relationships of CR with exposure for each exposure measure: frequencies of CR were tabulated and compared between tertiles of exposure; distributions of exposure were compared for patients with and without CR using box plots; and probability of CR was explored using logistic regression models.

[3] = landmark analysis, at least 4 cycles (65 patients)

Nc1ncn([C@H]2CC(OP(=O)(O)OC[C@H]3O[C@@H](n4cnc5c(=O)[nH]c(N)nc54)CC3O)[C@@H](CO)O2)c(=O)n1 (stereo partly drawn) [Compound I-1]
12-month survival ([1]; 60 mg/m^2): 67% | 24-month survival ([1]; 60 mg/m^2): 39% | Duration of response ([1]; 60 mg/m^2): 295 days | Median overall survival ([1]; 60 mg/m^2): 611 days | Partial response ([1]; 60 mg/m^2 (n = 53)): 0 patients | 12-month survival ([1]; 90 mg/m^2): 60% | 24-month survival ([1]; 90 mg/m^2): 30% | Duration of response ([1]; 90 mg/m^2): 207 days | Median overall survival ([1]; 90 mg/m^2): 399 days | Partial response ([1]; 90 mg/m^2 (n = 49)): 0 patients | Median survival ([1]; 4 or more treatment cycles): 20.4 months | OS ([1]; 6 or more treatment cycles): 23.8 months | OS hazard ratio ([1]; 6 or more vs less than 6 treatment cycles): 0.41 | Partial response ([1]; All patients (n = 102)): 0 patients | Median OS ([1]; Baseline BM Blasts >5%): 12.3 months | Median OS ([1]; Baseline BM Blasts ≤5%): 22.7 months | Median OS ([1]; Baseline ECOG PS 0-1): 15.6 months | Median OS ([1]; Baseline ECOG PS 2): 8.7 months | Median OS ([1]; Baseline RBCs Transfusion Dependent): 11.7 months | Median OS ([1]; Baseline RBCs Transfusion Independent): 20.4 months | Partial response ([1]; Relapsed or refractory (n = 53)): 0 patients | Median OS ([1]; TN MDS/CMML patients): 23.4 months | Partial response ([1]; Treatment-naïve (n = 49)): 0 patients | Survival hazard ratio ([1]; at least 4 vs less than 4 treatment cycles): 0.55 | Median duration of complete, partial or marrow complete response ([1]; entire population): 203 days | Median overall survival ([1]; entire study population): 460 days | Median OS ([1]; landmark analysis, <4 cycles): 15.2 m | Objective response (OR) rate ([1]; landmark analysis, <4 cycles (26 patients)): 15% | Median OS ([1]; landmark analysis, <6 cycles): 13.6 m | Objective response (OR) rate ([1]; landmark analysis, <6 cycles (43 patients)): 26% | Median OS ([1]; landmark analysis, at least 4 cycles): 20.4 m | Objective response [1, 3]: 44 patients | Objective response (OR) rate [1, 3]: 68% | OS HR ([1]; landmark analysis, at least 4 vs <4 cycles): 0.78 | Median OS ([1]; landmark analysis, at least 6 cycles): 23.8 m | Objective response (OR) rate ([1]; landmark analysis, at least 6 cycles (44 patients)): 82% | OS HR ([1]; landmark analysis, at least 6 vs <6 cycles): 0.51 | OS HR ([1]; landmark, absence of objective response, at least 4 vs <4 cycles): 0.82 | OS HR ([1]; landmark, absence of objective response, at least 6 vs <6 cycles): 0.42 | Median survival ([1]; less than 4 treatment cycles): 8.7 months | OS ([1]; less than 6 treatment cycles): 9.1 months | Median time to response ([1]; patients with CR or marrow CR, entire study population): 85 days | Median OS ([1]; r/r MDS/CMML patients): 11.7 months | 2-year survival rate ([1]; relapsed or refractory cohort): 25% | Median overall survival ([1]; relapsed or refractory cohort): 352 days | Median overall survival ([1]; relapsed/refractory, 60 mg/m^2): 9.1 months | Median overall survival ([1]; relapsed/refractory, 90 mg/m^2): 12.3 months | 2-year survival rate ([1]; treatment-naïve cohort): 44% | Median overall survival ([1]; treatment-naïve cohort): 703 days | Exposure to active metabolite decitabine ([2]; Compound I-1 SC vs decitabine IV): longer exposure to the active metabolite decitabine | Time of highest mean plasma Compound I-1 concentration (first collection time point) ([2]; after SC injection): 1.5 h
